Experimental data reported in PubChem BioAssay (NCI).
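Five concentrations, 48 hours, 96-well plates. At the TGI there is no net growth.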

Tests used:
Test in all cases: NCI tumour cell line growth inhibition, 48 h
786-0 renal = test system: 786-0 renal
A498 renal = test system: A498 renal
A549 NSCLC = test system: A549 NSCLC
ACHN renal = test system: ACHN renal
BT-549 breast = test system: BT-549 breast
CCRF-CEM leukemia = test system: CCRF-CEM leukemia
DU-145 prostate = test system: DU-145 prostate
EKVX NSCLC = test system: EKVX NSCLC
HCC-2998 colon = test system: HCC-2998 colon
HCT-116 colon = test system: HCT-116 colon
HCT-15 colon = test system: HCT-15 colon
HOP-62 NSCLC = test system: HOP-62 NSCLC
HOP-92 NSCLC = test system: HOP-92 NSCLC
HS 578T breast = test system: HS 578T breast
IGROV1 ovarian = test system: IGROV1 ovarian
K-562 leukemia = test system: K-562 leukemia
KM12 colon = test system: KM12 colon
LOX IMVI melanoma = test system: LOX IMVI melanoma
M14 melanoma = test system: M14 melanoma
MALME-3M melanoma = test system: MALME-3M melanoma
MCF7 breast = test system: MCF7 breast
MDA-MB-231 breast = test system: MDA-MB-231 breast
MDA-MB-435 = test system: MDA-MB-435
MDA-N = test system: MDA-N
MOLT-4 leukemia = test system: MOLT-4 leukemia
NCI-H226 lung = test system: NCI-H226 lung
NCI-H23 lung = test system: NCI-H23 lung
NCI-H460 lung = test system: NCI-H460 lung
OVCAR-3 ovarian = test system: OVCAR-3 ovarian
OVCAR-5 ovarian = test system: OVCAR-5 ovarian
OVCAR-8 ovarian = test system: OVCAR-8 ovarian
PC-3 prostate = test system: PC-3 prostate
RXF 393 renal = test system: RXF 393 renal
SF-268 CNS = test system: SF-268 CNS
SF-295 CNS = test system: SF-295 CNS
SF-539 CNS = test system: SF-539 CNS
SK-MEL-2 melanoma = test system: SK-MEL-2 melanoma
SK-MEL-28 melanoma = test system: SK-MEL-28 melanoma
SK-MEL-5 melanoma = test system: SK-MEL-5 melanoma
SK-OV-3 ovarian = test system: SK-OV-3 ovarian
SN12C renal = test system: SN12C renal
SNB-19 CNS = test system: SNB-19 CNS
SNB-75 CNS = test system: SNB-75 CNS
SW-620 colon = test system: SW-620 colon
T-47D breast = test system: T-47D breast
TK-10 renal = test system: TK-10 renal
U251 CNS = test system: U251 CNS
UACC-257 melanoma = test system: UACC-257 melanoma
UACC-62 melanoma = test system: UACC-62 melanoma
UO-31 renal = test system: UO-31 renal
CAKI-1 renal = test system: CAKI-1 renal
HL-60(TB) leukemia = test system: HL-60(TB) leukemia
HT29 colon = test system: HT29 colon
OVCAR-4 ovarian = test system: OVCAR-4 ovarian
RPMI-8226 leukemia = test system: RPMI-8226 leukemia
SR leukemia = test system: SR leukemia

With `CC1(C)CNCC(C)(OCc2ccccc2)C(=O)NC(C)(C)CNCC(C)(OCc2ccccc2)C(=O)N1` (configuration not stated) the TGI (786-0 renal) was over 10 µM, the TGI (A498 renal) was over 10 µM and the TGI (A549 NSCLC) was over 10 µM. For the same compound, the TGI (ACHN renal) was over 10 µM, the TGI (BT-549 breast) was over 10 µM and the TGI (CCRF-CEM leukemia) was over 10 µM. The TGI (DU-145 prostate) was over 10 µM, the TGI (EKVX NSCLC) was over 10 µM and the TGI (HCC-2998 colon) was over 10 µM. For the same compound, the TGI (HCT-116 colon) was over 10 µM, the TGI (HCT-15 colon) was over 10 µM and the TGI (HOP-62 NSCLC) was over 10 µM. For the same compound, the TGI (HOP-92 NSCLC) was 4.8 µM, the TGI (HS 578T breast) was over 10 µM and the TGI (IGROV1 ovarian) was over 10 µM. The TGI (K-562 leukemia) was over 10 µM, the TGI (KM12 colon) was over 10 µM and the TGI (LOX IMVI melanoma) was over 10 µM. The TGI (M14 melanoma) was over 10 µM, the TGI (MALME-3M melanoma) was over 10 µM and the TGI (MCF7 breast) was over 10 µM. For the same compound, the TGI (MDA-MB-231 breast) was over 10 µM, the TGI (MDA-MB-435) was over 10 µM and the TGI (MDA-N) was over 10 µM. The TGI (MOLT-4 leukemia) was over 10 µM, the TGI (NCI-H226 lung) was over 10 µM and the TGI (NCI-H23 lung) was over 10 µM. For the same compound, the TGI (NCI-H460 lung) was over 10 µM, the TGI (OVCAR-3 ovarian) was over 10 µM and the TGI (OVCAR-5 ovarian) was over 10 µM. For the same compound, the TGI (OVCAR-8 ovarian) was over 10 µM, the TGI (PC-3 prostate) was over 10 µM and the TGI (RXF 393 renal) was over 10 µM. The TGI (SF-268 CNS) was over 10 µM, the TGI (SF-295 CNS) was over 10 µM and the TGI (SF-539 CNS) was over 10 µM. For the same compound, the TGI (SK-MEL-2 melanoma) was over 10 µM, the TGI (SK-MEL-28 melanoma) was over 10 µM and the TGI (SK-MEL-5 melanoma) was over 10 µM. It also gave a TGI (SK-OV-3 ovarian) of over 10 µM, a TGI (SN12C renal) of over 10 µM and a TGI (SNB-19 CNS) of over 10 µM. It also gave a TGI (SNB-75 CNS) of over 10 µM, a TGI (SW-620 colon) of over 10 µM and a TGI (T-47D breast) of over 10 µM. It also gave a TGI (TK-10 renal) of over 10 µM, a TGI (U251 CNS) of over 10 µM and a TGI (UACC-257 melanoma) of over 10 µM. It also gave a TGI (UACC-62 melanoma) of over 10 µM and a TGI (UO-31 renal) of over 10 µM.

Compound `Cc1c(-c2ccccc2)[nH]c2cc(Cl)ccc2c1=O` has a TGI (A498 renal) of over 100 µM, a TGI (A549 NSCLC) of over 100 µM and a TGI (ACHN renal) of over 100 µM. The TGI (BT-549 breast) was over 100 µM, the TGI (CAKI-1 renal) was over 100 µM and the TGI (CCRF-CEM leukemia) was over 100 µM. The TGI (DU-145 prostate) was over 100 µM, the TGI (EKVX NSCLC) was over 100 µM and the TGI (HCC-2998 colon) was over 100 µM. It also gave a TGI (HCT-116 colon) of over 100 µM, a TGI (HCT-15 colon) of over 100 µM and a TGI (HL-60(TB) leukemia) of over 100 µM. For the same compound, the TGI (HOP-62 NSCLC) was 60 µM, the TGI (HS 578T breast) was 65.6 µM and the TGI (HT29 colon) was over 100 µM. For the same compound, the TGI (K-562 leukemia) was over 100 µM, the TGI (KM12 colon) was 18.7 µM and the TGI (LOX IMVI melanoma) was over 100 µM. It also gave a TGI (M14 melanoma) of over 100 µM, a TGI (MALME-3M melanoma) of over 100 µM and a TGI (MCF7 breast) of over 100 µM. The TGI (MDA-MB-231 breast) was over 100 µM, the TGI (MDA-MB-435) was over 100 µM and the TGI (MDA-N) was over 100 µM. It also gave a TGI (MOLT-4 leukemia) of over 100 µM, a TGI (NCI-H226 lung) of 68 µM and a TGI (NCI-H23 lung) of over 100 µM. It also gave a TGI (NCI-H460 lung) of over 100 µM, a TGI (OVCAR-3 ovarian) of over 100 µM and a TGI (OVCAR-4 ovarian) of 66.3 µM. The TGI (OVCAR-5 ovarian) was over 100 µM, the TGI (RPMI-8226 leukemia) was over 100 µM and the TGI (RXF 393 renal) was 79.5 µM. For the same compound, the TGI (SF-268 CNS) was over 100 µM, the TGI (SF-539 CNS) was over 100 µM and the TGI (SK-MEL-2 melanoma) was over 100 µM. The TGI (SK-MEL-28 melanoma) was over 100 µM, the TGI (SK-MEL-5 melanoma) was over 100 µM and the TGI (SK-OV-3 ovarian) was over 100 µM. The TGI (SN12C renal) was over 100 µM, the TGI (SNB-19 CNS) was over 100 µM and the TGI (SR leukemia) was over 100 µM. It also gave a TGI (T-47D breast) of over 100 µM, a TGI (TK-10 renal) of over 100 µM and a TGI (U251 CNS) of 78.1 µM. The TGI (UACC-257 melanoma) was over 100 µM and the TGI (UACC-62 melanoma) was over 100 µM.
